{"source": "ChEMBL document CHEMBL3244053", "about": "“Structural modification study of bis(substituted aminoalkylamino)anthraquinones. An evaluation of the relationship of the [2-[(2-hydroxyethyl)amino]ethyl]amino side chain with antineoplastic activity” (1979)", "key": {"[1]": {"system": "L1210", "experiment": "Antineoplastic activity against mouse L1210 cells allografted in CDF1 mouse assessed as survival at 4 mg/kg qd for 9 days", "assay_type": "functional, organism-based", "design": "dose 4 mg/kg"}, "[2]": {"system": "Colon 26", "experiment": "Antineoplastic activity against mouse Colon 26 cells allografted in CDF1 mouse assessed as survival at 0.39 mg/kg qd for 9 days", "assay_type": "functional, organism-based", "design": "dose 0.39 mg/kg"}, "[3]": {"system": "P388", "experiment": "Antineoplastic activity against mouse P388 cells allografted in CDF1 mouse at 0.25 mg/kg qd for 9 days relative to control", "assay_type": "functional"}, "[4]": {"system": "L1210", "experiment": "Antineoplastic activity against mouse L1210 cells allografted in CDF1 mouse assessed as survival at 2 mg/kg qd for 9 days", "assay_type": "functional, organism-based", "design": "dose 2 mg/kg"}, "[5]": {"system": "L1210", "experiment": "Antineoplastic activity against mouse L1210 cells allografted in CDF1 mouse assessed as survival at 1 mg/kg qd for 9 days", "assay_type": "functional, organism-based", "design": "dose 1 mg/kg"}, "[6]": {"system": "Colon 26", "experiment": "Antineoplastic activity against mouse Colon 26 cells allografted in CDF1 mouse at 0.39 mg/kg qd for 9 days relative to control", "assay_type": "functional"}, "[7]": {"system": "P388", "experiment": "Antineoplastic activity against mouse P388 cells allografted in CDF1 mouse at 1 mg/kg qd for 9 days relative to control", "assay_type": "functional"}, "[8]": {"system": "Colon 26", "experiment": "Antineoplastic activity against mouse Colon 26 cells allografted in CDF1 mouse at 0.69 mg/kg qd for 9 days relative to control", "assay_type": "functional"}, "[9]": {"system": "L1210", "experiment": "Antineoplastic activity against mouse L1210 cells allografted in CDF1 mouse at 10.8 mg/kg qd for 9 days relative to control", "assay_type": "functional"}, "[10]": {"system": "B16", "experiment": "Antineoplastic activity against mouse B16 cells allografted in BDF1 mouse assessed as survival at 0.5 mg/kg qd for 9 days", "assay_type": "functional, organism-based", "design": "dose 0.5 mg/kg"}, "[11]": {"system": "B16", "experiment": "Antineoplastic activity against mouse B16 cells allografted in BDF1 mouse assessed as survival at 2 mg/kg qd for 9 days", "assay_type": "functional, organism-based", "design": "dose 2 mg/kg"}, "[12]": {"system": "P388", "experiment": "Antineoplastic activity against mouse P388 cells allografted in CDF1 mouse at 0.12 mg/kg qd for 9 days relative to control", "assay_type": "functional"}, "[13]": {"system": "L1210", "experiment": "Antineoplastic activity against mouse L1210 cells allografted in CDF1 mouse at 2 mg/kg qd for 9 days relative to control", "assay_type": "functional"}, "[14]": {"system": "P388", "experiment": "Antineoplastic activity against mouse P388 cells allografted in CDF1 mouse at 2 mg/kg qd for 9 days relative to control", "assay_type": "functional"}, "[15]": {"system": "L1210", "experiment": "Antineoplastic activity against mouse L1210 cells allografted in CDF1 mouse assessed as survival at 10.8 mg/kg qd for 9 days", "assay_type": "functional, organism-based", "design": "dose 10.8 mg/kg"}, "[16]": {"system": "B16", "experiment": "Antineoplastic activity against mouse B16 cells allografted in BDF1 mouse at 0.25 mg/kg qd for 9 days relative to control", "assay_type": "functional"}, "[17]": {"system": "Colon 26", "experiment": "Antineoplastic activity against mouse Colon 26 cells allografted in CDF1 mouse assessed as survival at 0.69 mg/kg qd for 9 days", "assay_type": "functional, organism-based", "design": "dose 0.69 mg/kg"}, "[18]": {"system": "P388", "experiment": "Antineoplastic activity against mouse P388 cells allografted in CDF1 mouse assessed as survival at 0.06 mg/kg qd for 9 days", "assay_type": "functional, organism-based", "design": "dose 0.06 mg/kg"}, "[19]": {"system": "P388", "experiment": "Antineoplastic activity against mouse P388 cells allografted in CDF1 mouse at 0.06 mg/kg qd for 9 days relative to control", "assay_type": "functional"}, "[20]": {"system": "P388", "experiment": "Antineoplastic activity against mouse P388 cells allografted in CDF1 mouse at 0.5 mg/kg qd for 9 days relative to control", "assay_type": "functional"}, "[21]": {"system": "L1210", "experiment": "Antineoplastic activity against mouse L1210 cells allografted in CDF1 mouse at 1 mg/kg qd for 9 days relative to control", "assay_type": "functional"}, "[22]": {"system": "Colon 26", "experiment": "Antineoplastic activity against mouse Colon 26 cells allografted in CDF1 mouse at 1.08 mg/kg qd for 9 days relative to control", "assay_type": "functional"}, "[23]": {"system": "P388", "experiment": "Antineoplastic activity against mouse P388 cells allografted in CDF1 mouse assessed as survival at 2 mg/kg qd for 9 days", "assay_type": "functional, organism-based", "design": "dose 2 mg/kg"}, "[24]": {"system": "B16", "experiment": "Antineoplastic activity against mouse B16 cells allografted in BDF1 mouse assessed as survival at 1 mg/kg qd for 9 days", "assay_type": "functional, organism-based", "design": "dose 1 mg/kg"}, "[25]": {"system": "B16", "experiment": "Antineoplastic activity against mouse B16 cells allografted in BDF1 mouse assessed as survival at 0.25 mg/kg qd for 9 days", "assay_type": "functional, organism-based", "design": "dose 0.25 mg/kg"}, "[26]": {"system": "B16", "experiment": "Antineoplastic activity against mouse B16 cells allografted in BDF1 mouse at 1 mg/kg qd for 9 days relative to control", "assay_type": "functional"}, "[27]": {"system": "B16", "experiment": "Antineoplastic activity against mouse B16 cells allografted in BDF1 mouse at 2 mg/kg qd for 9 days relative to control", "assay_type": "functional"}, "[28]": {"system": "L1210", "experiment": "Antineoplastic activity against mouse L1210 cells allografted in CDF1 mouse at 18 mg/kg qd for 9 days relative to control", "assay_type": "functional"}, "[29]": {"system": "L1210", "experiment": "Antineoplastic activity against mouse L1210 cells allografted in CDF1 mouse assessed as survival at 18 mg/kg qd for 9 days", "assay_type": "functional, organism-based", "design": "dose 18 mg/kg"}, "[30]": {"system": "P388", "experiment": "Antineoplastic activity against mouse P388 cells allografted in CDF1 mouse assessed as survival at 0.25 mg/kg qd for 9 days", "assay_type": "functional, organism-based", "design": "dose 0.25 mg/kg"}, "[31]": {"system": "P388", "experiment": "Antineoplastic activity against mouse P388 cells allografted in CDF1 mouse assessed as survival at 1 mg/kg qd for 9 days", "assay_type": "functional, organism-based", "design": "dose 1 mg/kg"}, "[32]": {"system": "B16", "experiment": "Antineoplastic activity against mouse B16 cells allografted in BDF1 mouse at 0.5 mg/kg qd for 9 days relative to control", "assay_type": "functional"}, "[33]": {"system": "Colon 26", "experiment": "Antineoplastic activity against mouse Colon 26 cells allografted in CDF1 mouse assessed as survival at 1.08 mg/kg qd for 9 days", "assay_type": "functional, organism-based", "design": "dose 1.08 mg/kg"}, "[34]": {"system": "L1210", "experiment": "Antineoplastic activity against mouse L1210 cells allografted in CDF1 mouse at 4 mg/kg qd for 9 days relative to control", "assay_type": "functional"}, "[35]": {"system": "P388", "experiment": "Antineoplastic activity against mouse P388 cells allografted in CDF1 mouse assessed as survival at 0.12 mg/kg qd for 9 days", "assay_type": "functional, organism-based", "design": "dose 0.12 mg/kg"}, "[36]": {"system": "P388", "experiment": "Antineoplastic activity against mouse P388 cells allografted in CDF1 mouse assessed as survival at 0.5 mg/kg qd for 9 days", "assay_type": "functional, organism-based", "design": "dose 0.5 mg/kg"}}, "note": "Active and inactive are the calls of the source. The rule behind the calls is not given here.", "data": [{"smiles": "O=C1c2c(O)ccc(O)c2C(=O)c2c(NCCNCCO)ccc(NCCNCCO)c21", "note": "[MITOXANTRONE]", "values": [{"measurement": "Activity", "setting": "[1]", "result": "Active"}, {"measurement": "Activity", "setting": "[2]", "result": "Active"}, {"measurement": "T/C", "setting": "[3]", "result": 224, "unit": "%"}, {"measurement": "Activity", "setting": "[4]", "result": "Active"}, {"measurement": "Activity", "setting": "[5]", "result": "Active"}, {"measurement": "T/C", "setting": "[6]", "result": 259, "unit": "%"}, {"measurement": "T/C", "setting": "[7]", "result": 381, "unit": "%"}, {"measurement": "T/C", "setting": "[8]", "result": 305, "unit": "%"}, {"measurement": "T/C", "setting": "[9]", "result": 261, "unit": "%"}, {"measurement": "Activity", "setting": "[10]", "result": "Active"}, {"measurement": "Activity", "setting": "[11]", "result": "Active"}, {"measurement": "T/C", "setting": "[12]", "result": 210, "unit": "%"}, {"measurement": "T/C", "setting": "[13]", "result": 198, "unit": "%"}, {"measurement": "T/C", "setting": "[14]", "result": 230, "unit": "%"}, {"measurement": "Activity", "setting": "[15]", "result": "Active"}, {"measurement": "T/C", "setting": "[16]", "result": 186, "unit": "%"}, {"measurement": "Activity", "setting": "[17]", "result": "Active"}, {"measurement": "Activity", "setting": "[18]", "result": "Active"}, {"measurement": "T/C", "setting": "[19]", "result": 192, "unit": "%"}, {"measurement": "T/C", "setting": "[20]", "result": 305, "unit": "%"}, {"measurement": "T/C", "setting": "[21]", "result": 163, "unit": "%"}, {"measurement": "T/C", "setting": "[22]", "result": 353, "unit": "%"}, {"measurement": "Activity", "setting": "[23]", "result": "Active"}, {"measurement": "Activity", "setting": "[24]", "result": "Active"}, {"measurement": "Activity", "setting": "[25]", "result": "Active"}, {"measurement": "T/C", "setting": "[26]", "result": 342, "unit": "%"}, {"measurement": "T/C", "setting": "[27]", "result": 231, "unit": "%"}, {"measurement": "T/C", "setting": "[28]", "result": 308, "unit": "%"}, {"measurement": "Activity", "setting": "[29]", "result": "Active"}, {"measurement": "Activity", "setting": "[30]", "result": "Active"}, {"measurement": "Activity", "setting": "[31]", "result": "Active"}, {"measurement": "T/C", "setting": "[32]", "result": 299, "unit": "%"}, {"measurement": "Activity", "setting": "[33]", "result": "Active"}, {"measurement": "T/C", "setting": "[34]", "result": 256, "unit": "%"}, {"measurement": "Activity", "setting": "[35]", "result": "Active"}, {"measurement": "Activity", "setting": "[36]", "result": "Active"}]}]}
